Measurements as given in patent US10328077B2 (CELGENE CORPORATION, priority 2016, dated 2019).

Legend:
[1] = system: CD11b expression in THP-1 (AML) cells; experiment: LSD-1 CD11b cellular assay (flow cytometry); conditions: Homo sapiens, THP-1, 96 h, read-out: THP-1 IC50
Protocol: To analyze LSD-1 inhibitor efficacy in cells, a CD11b flow cytometry assay was performed. […] LSD-1 test compounds were serially diluted in DMSO. The dilutions were added to each well accordingly to a final concentration of 0.2% DMSO. The cells were incubated at 37 degrees Celsius in 5% CO2 for 4 days. 250 μL of each well was transferred to a well in a 96 well round bottom plate. The plate was centrifuged at 1200 rpm at 4 degrees Celsius in a Beckman Coulter Alegra 6KR centrifuge for 5 minutes. The media was removed leaving the cells at the bottom of the wells. The cells were washed in 100 μL cold HBSS (Hank's Balanced Salt Solution) plus 2% BSA (Bovine Serum Albumin) solution and centrifuged at 1200 rpm at 4 degrees Celsius for 5 minutes. The wash was removed. […] The cells were centrifuged and washed two times in 100 μl HBSS plus 2% BSA. After the final spin the cells were resuspended in 100 μL HBSS plus 2% BSA containing 1 μg/mL DAPI (4′,6-diamidino-2-phenylindole). The cells were then analyzed by flow cytometry in a BD FACSAria machine. Cells were analyzed for CD11b expression. The percent of CD11b expressing cells for each inhibitor concentration was used to determine an IC50 curve for each compound analyzed.

human LSD-1 = human LSD-1 (Homo sapiens (Human), UniProt O60341); experiment: In vitro enzyme inhibition assay LSD-1 (TR-FRET); type: biochemical; conditions: TR-FRET, H3K4me1-biotin labeled peptide
From the text: This assay determines the ability of a test compound to inhibit LSD-1 demethylase activity.
The enzymatic assay of LSD-1 activity is based on Time Resolved-Fluorescence Resonance Energy Transfer (TR-FRET) detection.

Row | SMILES | IC50 [1] [nM] | IC50 (human LSD-1) [nM]
1 | CN(C)C1CCN(c2nc(-c3ccc(C#N)c(F)c3)c(-c3ccc4cn[nH]c4c3)c(=O)n2C)CC1 [Example 84, 4-[2-(4-dimethylamino-piperidin-1-yl)-5-(2H-indazol-6-yl)-1-methyl-6-oxo-1,6-dihydro-pyrimidin-4-yl]-2-fluoro-benzonitrile] | < 100 | < 100
2 | COc1ccc(-c2c(-c3ccc(C#N)c(F)c3)nc(N3CCC(C)(N)CC3)n(C)c2=O)cc1F [Example 32, 4-[2-(4-amino-4-methyl-piperidin-1-yl)-5-(3-fluoro-4-methoxy-phenyl)-1-methyl-6-oxo-1,6-dihydro-pyrimidin-4-yl]-2-fluoro-benzonitrile] | < 100 | < 100
3 | Cn1c(N2CCC(N)CC2)nc(-c2ccc(C#N)c(F)c2)c(-c2ccc3cn[nH]c3c2)c1=O [Example 77, 4-[2-(4-amino-piperidin-1-yl)-5-(1H-indazol-6-yl)-1-methyl-6-oxo-1,6-dihydro-pyrimidin-4-yl]-2-fluoro-benzonitrile] | < 100 | < 100
4 | COc1ccc(-c2c(-c3ccc(C#N)c(F)c3)nc(NC[C@@H]3CCNC3)n(C)c2=O)cc1 [Example 52, 2-fluoro-4-{5-(4-methoxy-phenyl)-1-methyl-6-oxo-2-[(3R)-(pyrrolidin-3-ylmethyl)-amino]-1,6-dihydro-pyrimidin-4-yl}-benzonitrile] | 100 to 1000 | < 100
5 | CN(C)C1CCN(c2nc(-c3ccc(C#N)c(F)c3)c(-c3ccc4c(cnn4C)c3)c(=O)n2C)CC1 [Example 72, 4-[2-(4-dimethylamino-piperidin-1-yl)-1-methyl-5-(1-methyl-1H-indazol-5-yl)-6-oxo-1,6-dihydro-pyrimidin-4-yl]-2-fluoro-benzonitrile] | < 100 | < 100
6 | CNC1CCN(c2nc(-c3ccc(C#N)c(F)c3)c(-c3ccc(N(C)C)nc3)c(=O)n2C)CC1 [Example 83, 4-[5-(6-dimethylamino-pyridin-3-yl)-1-methyl-2-(4-methylamino-piperidin-1-yl)-6-oxo-1,6-dihydro-pyrimidin-4-yl]-2-fluoro-benzonitrile] | < 100 | < 100
7 | CN(C)c1ccc(-c2c(-c3ccc(C#N)c(F)c3)nc(N3CCC(N)CC3)n(C)c2=O)cc1 [Example 59, 4-[2-(4-amino-piperidin-1-yl)-5-(4-dimethylamino-phenyl)-1-methyl-6-oxo-1,6-dihydro-pyrimidin-4-yl]-2-fluoro-benzonitrile] | < 100 | < 100
8 | Cn1c(N2CCC(N)CC2)nc(-c2ccc(C#N)c(F)c2)c(-c2ccc(F)c(F)c2)c1=O [Example 104, 4-[2-(4-aminopiperidin-1-yl)-5-(3,4-difluorophenyl)-1-methyl-6-oxopyrimidin-4-yl]-2-fluorobenzonitrile] | < 100 | < 100
9 | Cn1c(N2CCC(N)CC2)nc(-c2ccc(C#N)c(F)c2)c(-c2ccc3c(c2)CNC3=O)c1=O [Example 42, 4-[2-(4-amino-piperidin-1-yl)-1-methyl-6-oxo-5-(1-oxo-2,3-dihydro-1H-isoindol-5-yl)-1,6-dihydro-pyrimidin-4-yl]-2-fluoro-benzonitrile] | 100 to 1000 | < 100
10 | COc1ccc(-c2c(-c3ccc(C#N)c(F)c3)nc(N3CCC(N(C)C)CC3)n(C)c2=O)cn1 [Example 92, 4-[2-[4-(dimethylamino)piperidin-1-yl]-5-(6-methoxypyridin-3-yl)-1-methyl-6-oxopyrimidin-4-yl]-2-fluorobenzonitrile] | < 100 | < 100
11 | COc1ccc(-c2c(-c3ccc(C#N)c(F)c3)nc(N3CCC[C@@H](N)C3)n(C)c2=O)cc1F [Example 25, 4-[2-((3R)-3-aminopiperidyl)-5-(3-fluoro-4-methoxyphenyl)-1-methyl-6-oxohydropyrimidin-4-yl]-2-fluorobenzenecarbonitrile] | < 100 | < 100
12 | CCOc1ccc(-c2c(-c3ccc(C#N)c(F)c3)nc(N3CCC(N)CC3)n(C)c2=O)cn1 [Example 94, 4-[2-(4-aminopiperidin-1-yl)-5-(6-ethoxypyridin-3-yl)-1-methyl-6-oxopyrimidin-4-yl]-2-fluorobenzonitrile] | < 100 | < 100
13 | CNC1CCN(c2nc(-c3ccc(C#N)c(F)c3)c(-c3ccc4c(cnn4C)c3)c(=O)n2C)CC1 [Example 87, 2-fluoro-4-[1-methyl-2-[4-(methylamino)piperidin-1-yl]-5-(1-methylindazol-5-yl)-6-oxopyrimidin-4-yl] benzonitrile] | < 100 | < 100
14 | COc1ccc(-c2c(-c3ccc(C#N)c(F)c3)nc(N3CC[C@@H](N)[C@@H](F)C3)n(C)c2=O)cc1 [Example 78, 4-[2-((4R, 3S)-4-amino-3-fluoro-piperidin-1-yl)-5-(4-methoxy-phenyl)-1-methyl-6-oxo-1,6-dihydro-pyrimidin-4-yl]-2-fluoro-benzonitrile] | < 100 | < 100
15 | Cn1c(N2CCC(N)CC2)nc(-c2ccc(C#N)c(F)c2)c(-c2ccc(Cl)cc2)c1=O [Example 106, 4-[2-(4-aminopiperidin-1-yl)-5-(4-chlorophenyl)-1-methyl-6-oxopyrimidin-4-yl]-2-fluorobenzonitrile] | < 100 | < 100
16 | COc1ccc(-c2c(-c3ccc(C#N)c(F)c3)nc(N3CCC4(CCNC4)CC3)n(C)c2=O)cc1F [Example 22, 4-[2-(2,8-diaza-spiro[4.5]dec-8-yl)-5-(3-fluoro-4-methoxy-phenyl)-1-methyl-6-oxo-1,6-dihydro-pyrimidin-4-yl]-2-fluorobenzonitrile] | < 100 | < 100
17 | CN(C)c1ncc(-c2c(-c3ccc(C#N)c(F)c3)nc(N3CCC(N)CC3)n(C)c2=O)cn1 [Example 49, 4-[2-(4-amino-piperidin-1-yl)-2′-dimethylamino-1-methyl-6-oxo-1,6-dihydro-[5,5′]bipyrimidinyl-4-yl]-2-fluoro-benzonitrile] | < 100 | < 100
18 | Cn1c(N2CCC(N)CC2)nc(-c2ccc(C#N)c(F)c2)c(-c2ccc(S(C)(=O)=O)cc2)c1=O [Example 105, 4-[2-(4-aminopiperidin-1-yl)-1-methyl-5-(4-methylsulfonylphenyl)-6-oxopyrimidin-4-yl]-2-fluorobenzonitrile] | < 100 | < 100
19 | Cn1c(N2CCC(N)CC2)nc(-c2ccc(C#N)c(F)c2)c(-c2cccc(F)c2)c1=O [Example 102, 4-[2-(4-aminopiperidin-1-yl)-5-(3-fluorophenyl)-1-methyl-6-oxopyrimidin-4-yl]-2-fluorobenzonitrile] | < 100 | < 100
20 | Cn1c(N2CCC(N)CC2)nc(-c2ccc(C#N)c(F)c2)c(-c2ccc3ccn(C)c3c2)c1=O [Example 76, 4-[2-(4-amino-piperidin-1-yl)-1-methyl-5-(1-methyl-1H-indol-6-yl)-6-oxo-1,6-dihydro-pyrimidin-4-yl]-2-fluoro-benzonitrile] | < 100 | < 100
21 | COc1ccc(-c2c(-c3ccc(C#N)c(F)c3)nc(N3CC[C@@H](N)C3)n(C)c2=O)cc1F [Example 27, 4-[2-((3R)-3-aminopyrrolidinyl)-5-(3-fluoro-4-methoxyphenyl)-1-methyl-6-oxohydropyrimidin-4-yl]-2-fluorobenzenecarbonitrile] | < 100 | < 100
22 | COc1ccc(-c2c(-c3ccc(C#N)c(F)c3)nc(NC[C@H]3CCNC3)n(C)c2=O)cc1 [Example 51, 2-fluoro-4-{5-(4-methoxy-phenyl)-1-methyl-6-oxo-2-[(3S)-(pyrrolidin-3-ylmethyl)-amino]-1,6-dihydro-pyrimidin-4-yl}-benzonitrile] | 100 to 1000 | < 100
23 | CCOc1ccc(-c2c(-c3ccc(C#N)c(F)c3)nc(N3CCC(N)CC3)n(C)c2=O)cc1 [Example 95, 4-[2-(4-aminopiperidin-1-yl)-5-(4-ethoxyphenyl)-1-methyl-6-oxopyrimidin-4-yl]-2-fluorobenzonitrile] | < 100 | < 100
24 | Cn1c(N2CCC(N)CC2)nc(-c2ccc(C#N)c(F)c2)c(-c2ccc(OCCO)cc2)c1=O [Example 96, 4-[2-(4-aminopiperidin-1-yl)-5-[4-(2-hydroxyethoxy)phenyl]-1-methyl-6-oxopyrimidin-4-yl]-2-fluorobenzonitrile] | < 100 | < 100
25 | Cn1c(N2CCC(N)CC2)nc(-c2ccc(C#N)c(F)c2)c(-c2ccc3c(ccn3C)c2)c1=O [Example 74, 4-[2-(4-amino-piperidin-1-yl)-1-methyl-5-(1-methyl-1H-indol-5-yl)-6-oxo-1,6-dihydro-pyrimidin-4-yl]-2-fluoro-benzonitrile] | < 100 | 
26 | COc1ccc(-c2c(-c3ccc(C#N)cc3)nc(N3CCC(N)CC3)n(C)c2=O)cc1 [Example 2, 4-[2-(4-amino-piperidin-1-yl)-5-(4-methoxy-phenyl)-1-methyl-6-oxo-1,6-dihydro-pyrimidin-4-yl]-benzonitrile] | < 100 | 
27 | Cn1c(N2CCC(N)CC2)nc(-c2ccc(C#N)cc2)c(-c2ccc3c(cnn3C)c2)c1=O [Example 33, 4-[2-(4-aminopiperidyl)-1-methyl-5-(1-methyl(1H-indazol-5-yl))-6-oxohydropyrimidin-4-yl]benzenecarbonitrile] | < 100 | 
28 | Cn1c(N2CCC(N)CC2)nc(-c2ccc(C#N)c(F)c2)c(-c2ccc3cc[nH]c3c2)c1=O [Example 75, 4-[2-(4-amino-piperidin-1-yl)-5-(1H-indol-6-yl)-1-methyl-6-oxo-1,6-dihydro-pyrimidin-4-yl]-2-fluoro-benzonitrile] | < 100 | 
29 | Cn1c(N2CCC(N)CC2)nc(-c2ccc(C#N)c(F)c2)c(-c2ccc(C(F)(F)F)nc2)c1=O [Example 23, 4-{2-(4-aminopiperidyl)-1-methyl-6-oxo-5-[6-(trifluoromethyl) (3-pyridyl)] hydropyrimidin-4-yl}-2-fluorobenzenecarbonitrile] | < 100 | 
